Earlier results in publication PMC2821159 (Bioorganic & medicinal chemistry, 2009).

System: protein kinases

In the case of CNc1ncnc2c1c(-c1cccc(O)c1)cn2C(C)C [Compound 4, 3-(7-isopropyl-4-(methylamino)-7H-pyrrolo[2,3-d]pyrimidin-5yl)phenol], the “inhibition against protein kinases” value is listed as “poor inhibition”.
